CC1(C)O[C@@H]2[C@@H](CO[C@@]3(COS(N)(=O)=O)OC(C)(C)O[C@@H]23)O1
solubility (mole fraction)
Conditions	278.15 K	283.15 K	288.15 K	293.15 K	298.15 K	303.15 K	308.15 K	313.15 K	318.15 K	323.15 K
in 2-butoxyethanol	0.0541	0.0602	0.0676	0.0756	0.0849	0.0986	0.111	0.124	0.14	0.157
in 2-ethoxyethanol	0.11	0.118	0.126	0.137	0.149	0.162	0.173	0.191	0.209	0.229
in 2-methoxyethanol	0.149	0.156	0.165	0.176	0.187	0.198	0.212	0.228	0.245	0.263
in 2-propoxyethanol	0.0726	0.0803	0.089	0.0981	0.109	0.121	0.134	0.15	0.167	0.187
in ethanol	0.0169	0.0202	0.0252	0.0315	0.039	0.0478	0.0628	0.079	0.102	0.129
in isobutanol	0.00375	0.004	0.00525	0.00684	0.00911	0.0121	0.0166	0.0225	0.0314	0.0441
in isopentanol	0.00308	0.00401	0.0052	0.00684	0.00905	0.0119	0.0147	0.0197	0.0261	0.0353

From BigSolDB 2.1
